We go through one compound from patent US20050020615A1, “CCI-779 lyophilized formulations” (Wyeth, priority 2003, published 2005).

For one data set, the system named is orthotopic glioma. Particulars: nude mice; cited from earlier work.
In data set [1] the test system is human tumor xenografts of diverse histological types. The conditions noted are these: nude mice; cited from earlier work.
A short description of data set [2]: Chemical stability of CCI-779 in solution (pH, chelating agent). Particulars: citric acid at less than 0.01% w/v. It is filed as physicochemical. From the text: Desirably, when a significant amount of water (e.g,. 40% v/v or greater) is present in the solvent blend of the pre-lyophilized solution, it is advantageous to adjust the pH to 4 to 6 as this is the range of maximum stability for CCI-779. In one embodiment, the pH is adjusted to a pH of about 5.5.
In some embodiments, components with chelating activity are included in the formulations of the invention as the sole “antioxidant component”. Typically, such metal-binding components, when acting as chelating agents are used in the lower end of the range of concentrations for the antioxidant component provided herein. […] Additionally, such chelating agents may be used in combination with other antioxidants as part of the antioxidant component of the invention. For example, an acceptable formulation may contain both citric acid and d,l-α-tocopherol. Optimal concentrations for the selected antioxidant(s) can be readily determined by one of skill in the art, based upon the information provided herein. All percentages are expressed a % w/v in the pre-lyophilized solution.
Desirably, the pre-lyophilization solution has a pH in the range of 4 to 6, which has been found by the inventor to improve the stability of CCI-779. Depending upon the components of the pre-lyophilization solution, the pH can be adjusted using any suitable inorganic or organic acid, or base, as needed. […]

For data set [3], the system named is human glioblastoma cell line. Particulars: in vitro, platelet-derived growth factor; cited from earlier work.
Another data set can be described thus: Solubility in water. Type of data set: physicochemical.
Data set [4] has as its system histologically diverse tumor cells. The conditions noted are these: in vitro; cited from earlier work.

Regarding `CO[C@H]1C[C@@H]2CC[C@@H](C)[C@@](O)(O2)C(=O)C(=O)N2CCCC[C@H]2C(=O)O[C@H]([C@H](C)C[C@@H]2CC[C@@H](OC(=O)C(C)(CO)CO)[C@H](OC)C2)CC(=O)[C@H](C)/C=C(\C)[C@@H](O)[C@@H](OC)C(=O)[C@H](C)C[C@H](C)/C=C/C=C/C=C/1C` [CCI-779, rapamycin 42-ester with 3-hydroxy-2-(hydroxymethyl)-2-methylpropionic acid], the “activity in orthotopic glioma model” value with orthotopic glioma was “active”. The activity against xenografts result in data set [1] is given as “has activity”. Also, in data set [2], the “effect of citric acid on stability of CCI-779” value was “enhanced the stability”. Moreover, in data set [3], the “growth factor-induced stimulation of cells” value is “markedly suppressed”. Also, the solubility in water result in the data set “Solubility in water” is listed as “poor solubility in water”. The “growth of tumor cells” value in data set [4] is reported as “inhibit the growth”.
